We go through 43 compounds from US8791267B2, “Biaryl PDE4 inhibitors for treating inflammatory, cardiovascular and CNS disorders” (Decode Genetics EHF, priority 2007, dated 2014).

One assay concerns the target PDE4 (Homo sapiens, UniProt Q08499). The assay can be described thus: In-vitro assay for PDE4 enzymes, real-time enzyme-coupled spectrophotometric assay (Table 9). It counts as biochemical. The settings on record: human PDE4D; activity class, Table 9; read-out: hPDE4D.
The next assay deals with PDE4B (Homo sapiens, UniProt Q07343). The assay can be described thus: In-vitro assay for PDE4 enzymes, real-time enzyme-coupled spectrophotometric assay, PDE4B Activity (Table 10). Format: biochemical. The settings on record: human PDE4B (hPDE4B), enzyme-coupled spectrophotometric assay; read-out: PDE4B Activity, hPDE4B.
Sequence of PDE4B (Q07343 whole entry): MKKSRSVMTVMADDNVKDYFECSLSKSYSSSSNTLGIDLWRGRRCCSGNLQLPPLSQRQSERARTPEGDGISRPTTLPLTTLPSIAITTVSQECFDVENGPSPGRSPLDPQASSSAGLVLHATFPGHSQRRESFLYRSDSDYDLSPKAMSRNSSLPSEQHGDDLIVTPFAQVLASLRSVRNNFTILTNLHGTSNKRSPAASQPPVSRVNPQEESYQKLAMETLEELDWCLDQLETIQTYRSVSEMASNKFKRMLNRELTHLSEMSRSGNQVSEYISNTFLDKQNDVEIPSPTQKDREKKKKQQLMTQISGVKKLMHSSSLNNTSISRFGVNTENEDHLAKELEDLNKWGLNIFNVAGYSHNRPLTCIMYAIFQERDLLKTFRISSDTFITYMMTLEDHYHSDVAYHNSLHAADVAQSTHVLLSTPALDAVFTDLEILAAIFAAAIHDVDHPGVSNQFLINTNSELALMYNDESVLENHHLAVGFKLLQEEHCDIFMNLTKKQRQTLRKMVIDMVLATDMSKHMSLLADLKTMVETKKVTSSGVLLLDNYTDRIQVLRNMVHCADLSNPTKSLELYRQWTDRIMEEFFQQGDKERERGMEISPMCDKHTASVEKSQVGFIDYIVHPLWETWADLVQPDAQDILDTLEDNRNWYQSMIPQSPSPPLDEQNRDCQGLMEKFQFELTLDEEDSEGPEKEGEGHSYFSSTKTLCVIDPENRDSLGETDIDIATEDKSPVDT

Sequence of PDE4 (Q08499 whole entry): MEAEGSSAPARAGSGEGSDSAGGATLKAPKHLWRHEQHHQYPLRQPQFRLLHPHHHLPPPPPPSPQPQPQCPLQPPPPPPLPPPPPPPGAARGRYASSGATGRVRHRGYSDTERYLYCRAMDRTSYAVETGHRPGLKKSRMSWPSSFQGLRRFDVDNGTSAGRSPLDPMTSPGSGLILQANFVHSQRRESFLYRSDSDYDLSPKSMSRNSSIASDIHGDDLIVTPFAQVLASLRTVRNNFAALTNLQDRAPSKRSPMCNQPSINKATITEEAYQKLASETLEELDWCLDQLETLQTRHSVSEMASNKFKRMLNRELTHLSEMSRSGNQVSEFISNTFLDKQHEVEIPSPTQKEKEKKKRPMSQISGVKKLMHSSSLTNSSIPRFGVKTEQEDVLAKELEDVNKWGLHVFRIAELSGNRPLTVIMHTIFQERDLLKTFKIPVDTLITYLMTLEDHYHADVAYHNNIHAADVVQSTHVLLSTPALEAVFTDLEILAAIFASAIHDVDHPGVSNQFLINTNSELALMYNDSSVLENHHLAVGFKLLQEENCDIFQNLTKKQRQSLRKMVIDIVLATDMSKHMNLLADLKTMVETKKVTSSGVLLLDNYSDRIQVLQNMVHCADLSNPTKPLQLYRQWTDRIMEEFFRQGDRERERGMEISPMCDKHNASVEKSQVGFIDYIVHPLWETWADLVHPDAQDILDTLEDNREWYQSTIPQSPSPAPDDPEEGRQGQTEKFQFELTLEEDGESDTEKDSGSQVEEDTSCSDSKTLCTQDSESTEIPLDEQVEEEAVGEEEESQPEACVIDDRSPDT

With `COc1ccc(COc2ccc(N)cc2)c(F)c1-c1cccc(Br)c1` [P-199], the IC50 at PDE4 and at PDE4B was < 5 µM throughout.
On to `COc1ccc(Cn2cncn2)cc1-c1cccc(C(C)=O)c1` [P-082, 1-(2′-Methoxy-5′-[1,2,4]triazol-1-ylmethyl-biphenyl-3-yl)-ethanone], for which the IC50 on PDE4 was < 5 µM; on PDE4B, 5 to 20 µM.
The matching figures for `CCOc1ccc(Cc2ccc(OC)c(-c3cccc(Cl)c3)c2F)s1` [P-310, 2-(3′-Chloro-2-fluoro-6-methoxy-biphenyl-3-ylmethyl)-5-ethoxythiophene]: < 5 µM and < 5 µM.
The corresponding values for `COc1ccc(C(C)(O)c2ccc(NC(N)=O)cc2)c(F)c1-c1cccc(Cl)c1` (centres unmarked) [P-441, {4-[1-(3′-chloro-2-fluoro-6-methoxy-biphenyl-3-yl)-1-hydroxy-ethyl]-phenyl}-urea] are < 5 µM and 5 to 20 µM.
For `COc1ccc(Cc2ccc(N)nc2)cc1-c1cccc([N+](=O)[O-])c1` [P-111], the IC50 at PDE4 and on PDE4B was < 5 µM each time.
In the case of `COc1ccc(Cc2cccc(C(N)=O)c2)cc1-c1cccc(Cl)c1` [P-282, 3-(3′-Chloro-6-methoxy-biphenyl-3-ylmethyl)-benzamide], the IC50 on PDE4 is < 5 µM; at PDE4B it was 5 to 20 µM.
Take `COc1ccc(Cc2nnc(NC(N)=O)s2)c(F)c1-c1cccc(Cl)c1` [P-352, [5-(3′-Chloro-2-fluoro-6-methoxy-biphenyl-3-ylmethyl)-[1,3,4]thiadiazol-2-yl]-urea]: the IC50 on PDE4 and on PDE4B was < 5 µM each time.
In the case of `COc1ccc(Cc2ccc(O)cc2)cc1-c1cccc([N+](=O)[O-])c1` [P-142], the IC50 on PDE4 and at PDE4B was < 5 µM throughout.
As for `COc1ccc(Cn2cc(NC(C)=O)ccc2=O)cc1-c1cccc([N+](=O)[O-])c1` [P-211, N-[1-(6-Methoxy-3′-nitro-biphenyl-3-ylmethyl)-6-oxo-1,6-dihydro-pyridin-3-yl]-acetamide], the IC50 on PDE4 and at PDE4B was 5 to 20 µM in each case.
Take `Oc1ccc(Cc2ccc(F)cc2)c(F)c1-c1cccc(Br)c1` [P-496]: the IC50 at PDE4 and at PDE4B was < 5 µM throughout.
Regarding `NCCOc1ccc(Cc2ccc(NC(N)=O)cc2)cc1-c1cccc(Cl)c1` [P-542, {4-[6-(2-Amino-ethoxy)-3′-chloro-biphenyl-3-ylmethyl]-phenyl}-urea], the IC50 at PDE4 was 20 to 40 µM; at PDE4B it was 21 to 40 µM.
In the case of `CC(=O)Nc1ccc(Cc2ccc(OC(F)F)c(-c3cccc(Br)c3)c2F)cc1` [P-313], the IC50 at PDE4 and at PDE4B was < 5 µM in each case.
As to `COC(=O)c1cccc(-c2cc(Cn3cncn3)ccc2OC)c1` [P-022, 2′-Methoxy-5′-[1,2,4]triazol-1-ylmethyl-biphenyl-3-carboxylic acid methyl ester], the IC50 on PDE4 was < 5 µM; on PDE4B, 5 to 20 µM.
`COc1ccc(CN2CCN(C(N)=O)CC2)c(F)c1-c1cccc(Cl)c1` [P-370]: the IC50 on PDE4 is < 5 µM; at PDE4B, 5 to 20 µM.
The corresponding values for `COc1ccc(Cc2ccc(NC(=O)CN(C)C)cc2)cc1-c1cccc([N+](=O)[O-])c1` [P-144] are < 5 µM and < 5 µM.
As to `COc1ccc(Cc2ccc(NC(C)=O)nc2)c(F)c1-c1cccc(Cl)c1` [P-387], the IC50 at PDE4 and at PDE4B was < 5 µM each time.
Regarding `COc1ccc(Cc2ccnn2C)cc1-c1ccc2c(c1)OCO2` [P-075, 5-(3-Benzo[1,3]dioxol-5-yl-4-methoxy-benzyl)-1-methyl-1H-pyrazole], the IC50 at PDE4 and on PDE4B was < 5 µM throughout.
For `COc1ccc(Cc2ccc(C(N)=O)nc2)c(F)c1-c1cccc(C(C)=O)c1` [P-328, 5-(3′-Acetyl-2-fluoro-6-methoxy-biphenyl-3-ylmethyl)-pyridine-2-carboxylic acid amide], the IC50 on PDE4 and at PDE4B was < 5 µM in each case.
As to `COc1ccc(Cc2ccc(N3CCC3)nc2)c(F)c1-c1cccc(Cl)c1` [P-569, 2-Azetidin-1-yl-5-(3′-chloro-2-fluoro-6-methoxy-biphenyl-3-ylmethyl)-pyridine], the IC50 at PDE4 and on PDE4B was < 5 µM in each case.
For `COc1ccc(CCn2ccccc2=O)cc1-c1cccc([N+](=O)[O-])c1` [P-244, 1-[2-(6-Methoxy-3′-nitro-biphenyl-3-yl)-ethyl]-1H-pyridin-2-one], the IC50 at PDE4 and at PDE4B was < 5 µM in each case.
As to `COc1ccc(Cc2ccc(CNC(N)=O)nc2)c(F)c1-c1cccc(Cl)c1` [P-368, [5-(3′-Chloro-2-fluoro-6-methoxy-biphenyl-3-ylmethyl)-pyridin-2-ylmethyl]-urea], the IC50 on PDE4 and at PDE4B was < 5 µM each time.
On to `COc1ccc(Cc2ccc(OC[C@H]3CCCN3)nc2)c(F)c1-c1cccc(Cl)c1` [P-523, 5-(3′-Chloro-2-fluoro-6-methoxy-biphenyl-3-ylmethyl)-2-((R)-1-pyrrolidin-2-ylmethoxy)-pyridine], for which the IC50 at PDE4 and at PDE4B was < 5 µM in each case.
Consider `COc1ccc(Cn2ccnc2)cc1-c1ccc2nonc2c1` [P-006, 5-(5-Imidazol-1-ylmethyl-2-methoxy-phenyl)-benzo[1,2,5]oxadiazole], for which the IC50 on PDE4 and on PDE4B was < 5 µM throughout.
For the compound `COc1ccc(CN2C(=O)c3cccnc3C2=O)cc1-c1cccc([N+](=O)[O-])c1` [P-055, 6-(6-Methoxy-3′-nitro-biphenyl-3-ylmethyl)-pyrrolo[3,4-b]pyridine-5,7-dione], the IC50 was < 5 µM on PDE4 and 5 to 20 µM at PDE4B.
As to `CCNC(=O)NCc1ccc(Cc2ccc(OC)c(-c3cccc(Cl)c3)c2F)cn1` [P-372, 1-[5-(3′-Chloro-2-fluoro-6-methoxy-biphenyl-3-ylmethyl)-pyridin-2-ylmethyl]-3-ethyl-urea], the IC50 at PDE4 and on PDE4B was < 5 µM in each case.
As for `COc1ccc(Cc2ccc(C(=O)N(C)C)nc2)c(F)c1-c1cccc(Cl)c1` [P-382, 5-(3′-Chloro-2-fluoro-6-methoxy-biphenyl-3-ylmethyl)-pyridine-2-carboxylic acid dimethylamide], the IC50 on PDE4 and at PDE4B was < 5 µM throughout.
`COc1ccc(COc2ccccn2)cc1-c1cccc([N+](=O)[O-])c1` [P-224, 2-(6-Methoxy-3′-nitro-biphenyl-3-ylmethoxy)-pyridine]: the IC50 at PDE4 and on PDE4B was 5 to 20 µM in each case.
In the case of `NC(=O)Nc1ccc(Cc2ccc(OC(F)F)c(-c3cccc([N+](=O)[O-])c3)c2F)cc1` [P-316], the IC50 on PDE4 and at PDE4B was < 5 µM throughout.
On to `CCOc1ccc(Cc2ccc(NC(N)=O)cc2)cc1-c1cccc(Cl)c1` [P-541, [4-(3′-Chloro-6-ethoxy-biphenyl-3-ylmethyl)-phenyl]-urea], for which the IC50 at PDE4 and at PDE4B was < 5 µM in each case.
As to `COc1ccc(Cn2cncc2CO)cc1-c1cccc([N+](=O)[O-])c1` [P-153, [3-(6-Methoxy-3′-nitro-biphenyl-3-ylmethyl)-3H-imidazol-4-yl]-methanol], the IC50 was < 5 µM at PDE4 and 5 to 20 µM on PDE4B.
The corresponding values for `COc1ccc(CN2CCCC2=O)cc1-c1cccc(Cl)c1` [P-218, 1-(3′-chloro-6-methoxy-biphenyl-3-ylmethyl)-pyrrolidin-2-one] are < 5 µM and < 5 µM.
On to `COc1cc(F)c(C(O)c2ccc(F)cc2)cc1-c1cccc([N+](=O)[O-])c1` (centres unmarked) [P-093, (4-Fluoro-6-methoxy-3′-nitro-biphenyl-3-yl)-(4-fluoro-phenyl)-methanol], for which the figures for the IC50 at PDE4 and at PDE4B were < 5 µM and 5 to 20 µM, respectively.
The corresponding values for `O=[N+]([O-])c1cccc(-c2cc(Cc3ccc(Cl)nc3)ccc2O)c1` [P-500] are < 5 µM and 5 to 20 µM.
As for `NC(=O)Nc1ccc(Cc2ccc(O)c(-c3cccc(Cl)c3)c2F)cc1` [P-468, [4-(3′-Chloro-2-fluoro-6-hydroxy-biphenyl-3-ylmethyl)-phenyl]-urea], the IC50 on PDE4 and on PDE4B was < 5 µM throughout.
As for `COc1ccc(COC2=CC(=O)CC2)cc1-c1cccc(C(F)(F)F)c1` [P-091, 3-(6-Methoxy-3′-trifluoromethyl-biphenyl-3-ylmethoxy)-cyclopent-2-enone], the IC50 at PDE4 was < 5 µM; at PDE4B, 21 to 40 µM.
The matching figures for `COc1ccc(Cc2ccc(NC(N)=O)nc2)c(F)c1-c1cccc(Cl)c1` [P-259]: < 5 µM and < 5 µM.
`COc1ccc(Cc2ccc(OCCN(C)C)nc2)c(O)c1-c1cccc([N+](=O)[O-])c1` [P-150]: the IC50 on PDE4 and at PDE4B was 5 to 20 µM each time.
For `COc1ccc(CN2C(=O)c3ccncc3C2=O)cc1-c1cccc([N+](=O)[O-])c1` [P-043, 2-(6-Methoxy-3′-nitro-biphenyl-3-ylmethyl)-pyrrolo[3,4-c]pyridine-1,3-dione], the IC50 at PDE4 was < 5 µM; at PDE4B, 5 to 20 µM.
As to `CCOC(=O)Nc1ccc(Cc2ccc(OC)c(-c3cccc(Cl)c3)c2F)cn1` [P-357], the IC50 at PDE4 and on PDE4B was < 5 µM in each case.
With `COc1ccc(CN2CCCCC2=O)cc1-c1cccc([N+](=O)[O-])c1` [P-188, 1-(6-Methoxy-3′-nitro-biphenyl-3-ylmethyl)-piperidin-2-one], the IC50 on PDE4 and at PDE4B was < 5 µM in each case.
Regarding `COc1ccc(-n2cnc3ccc(N)cc32)cc1-c1cccc(Cl)c1` [P-524, 3-(3′-Chloro-6-methoxy-biphenyl-3-yl)-3H-benzoimidazol-5-ylamine], the IC50 at PDE4 and at PDE4B was < 5 µM each time.
As to `COc1ccc(Cc2cccc(O)c2)c(F)c1-c1cccc(Cl)c1` [P-217], the IC50 on PDE4 and on PDE4B was < 5 µM each time.
As to `COc1ccc(Cc2ccc(Cl)nc2)c(F)c1-c1cccc(Cl)c1` [P-226], the IC50 at PDE4 is < 5 µM; at PDE4B it was 5 to 20 µM.
